The source of these data is PMC6992764 (Nature Communications, 2020).

Test [1] deals with THP-1 cells. Kind of test: Chemotaxis assay using TAXIScan. The following applies: DSF 50 µM, towards CCL2. Format: cell-based, human. As to the method:
The TAXIScan device (ECI, Tokyo, Japan) is an optically accessible horizontal chemotaxis apparatus consisting of an etched silicon substrate and a flat glass plate, which form two compartments separated by a 5-μm deep microchannel. THP-1 cells were applied through a hole connected to one of the compartments and aligned along the start line on the edge of the channel. Human CCL2 (10 ng mL^–1) was applied through a hole connected to the other compartment to form a concentration gradient in the channel. Time-lapse images were recorded every 30 s for 30 min and cell movement was analyzed using TAXIScan analyzer software (ECI, Tokyo, Japan).

Test [2] concerns THP-1 cells. Kind of test: Chemotaxis inhibition assay (chemoTX chamber, CCL2). Format: cell-based, human. The conditions noted are these: towards CCL2, 90 min. As to the method: Chemotaxis was measured in a 96-well chemoTX chemotaxis chamber with a polycarbonate filter (5-μm pore size) (Neuro probe). Human CCL2 (R&D Systems) was added to the lower chamber of the plate and the cells were added to the upper chamber. After incubation at 37 °C and 5% CO2 for 90 min, the filter was removed and the number of migrated cells in the lower chamber was counted using a cell counting kit F (Dojindo). Data are expressed as migration efficiency (percentage of the maximal migration).

For `CCN(CC)C(=S)SSC(=S)N(CC)CC` [DSF, disulfiram], in the test on THP-1 cells [1], the chemotaxis directionality result is listed as “impaired” and the chemotaxis velocity entry is recorded as “impaired”. Moreover, the cellular chemotaxis entry in the test on THP-1 cells [2] was “inhibited”.
